{
  "source": "paper PMC9126943",
  "about": "“ADAMTS4-specific MR probe to assess aortic aneurysms in vivo using synthetic peptide libraries” (Nature Communications, 2022)",
  "molecules": {"B1": {"name": "ADAMTS4 (A Disintegrin And Metalloproteinase with ThromboSpondin motifs 4), recombinant human (enzyme)", "chain": "FASLSRFVETLVVADDKMAAFHGAGLKRYLLTVMAAAAKAFKHPSIRNPVSLVVTRLVILGSGEEGPQVGPSAAQTLRSFCAWQRGLNTPEDSDPDHFDTAILFTRQDLCGVSTCDTLGMADVGTVCDPARSCAIVEDDGLQSAFTAAHELGHVFNMLHDNSKPCISLNGPLSTSRHVMAPVMAHVDPEEPWSPCSARFITDFLDNGYGHCLLDKPEAPLHLPVTFPGKDYDADRQCQLTFGPDSRHCPQLPPPCAALWCSGHLNGHAMCQTKHSPWADGTPCGPAQACMGGRCLHMDQLQDFNIPQAGGWGPWGPWGDCSRTCGGGVQFSSRDCTRPVPRNGGKYCEGRRTRFRSCNTEDCPTGSALTFREEQCAAYNHRTDLFKSFPGPMDWVPRYTGVAPQDQCKLTCQAQALGYYYVLEPRVVDGTPCSPDSSSVCVQGRCIHAGCDRIIGSKKKFDKCMVCGGDGSGC"}},
  "key": {"ADAMTS4 [1]": {"target": "T1, ADAMTS4 (Homo sapiens, UniProt O75173)", "T1 construct": "This is consistent with the recombinant proteins, we used in the screening process; purchased BioTeZ Berlin-Buch GmbH 30 400 102", "T1 sequence (O75173 213-685)": "B1 chain", "experiment": "MST instrument, ligand-dependent fluorescence change, Cy5-labeled peptides vs ADAMTS4 (incl. alanine scan)", "assay_type": "binding", "settings": "for binding to ADAMTS4 (ligand-dependent fluorescence change), in words: Cy5-labeled peptide 3 nM, 25 °C, n = 3", "protocol": "Microscale thermophoresis (MST) was performed on a Monolith Pico (NanoTemper, Munich, Germany). The Cy5-labeled peptides were diluted into the MST buffer (150 mM NaCl, 50 mM TRIS-HCl, 5 mM CaCl2, and Tween-20) to reach a dilution of 6 nM. ADAMTS4, ADAMTS5, and ADAMTS1 were directly used with the supplied concentration. For ADAMTS4, the starting concentration was 4.96 µM, while for ADAMTS1 it was 4.88 µM and for ADAMTS5 it was 2.46 µM. […] 20 µl of the protein solutions were transferred into a PCR tube. 10 µl of this first vial was transferred into a second vial and mixed by pipetting with 10 µl of the MST buffer. The dilution series was continued 14 times. From tube 16, 10 µl were removed. Into all 16 tubes, 10 µl of the respective peptide solution were added and mixed by pipetting. The samples were incubated for 20 min and subsequently transferred to premium capillaries (NanoTemper, Munich, Germany). The capillaries were transferred into the Monolith tray and measured with 10% excitation power on the pico-red excitation on high MST power at 25 °C. Analysis was performed with MO.Affinity Analysis v3.0.1 (NanoTemper, Munich, Germany) and Origin 2022 (OriginLab Corporation, Northampton, MA). […] We checked for ADAMTS4 and the ADAMTS4-specific-Cy5-labeled probe via a saturation test for specifying the ligand-dependent fluorescence change. Therefore, the three highest ligand concentrations and the three lowest ligand concentrations of the measurement were used and centrifuged for 15 min at 16060 x g at 20 °C. Of each concentration, 7 µl were picked and mixed with 7 µl of a 10 M urea solution each. The samples were heated at 95 °C for 5 min and measured in the MST. […] Each measurement was repeated three times independently and the binding constant was calculated by merging all three measurements. […] The data were normalized using MO Affinity Analysis v3.0.1 and the fraction bound [−] was shown. […] Therefore, the percentage variance of the values to the average was plotted.\nAll measurements were performed with 10% LED power, high MST power and at 25 °C. The ligand dependent fluorescence change was used for determining the binding. […] The concentrations of the peptide were kept constant (3 nM in the measurement), while the proteins were diluted in the same manner as for ADAMTS4. […] The Cy5-labeled peptides (3 nM in the measurement) were kept constant, while ADAMTS4 was diluted in the same manner for each peptide (n=3 biologically independent measurements for each peptide; the data are presented as mean values ± SD). […] MST: microscale thermophoresis; nM: nanomolar; His: L-histidine; LED: light-emitting diode; n/a: not available; KD: binding constant."}, "ADAMTS4 [2]": {"target": "T1, ADAMTS4", "experiment": "MST trace (MST points at 2.5 seconds) of peptides without fluorescence change", "assay_type": "binding", "settings": "high MST power", "protocol": "Microscale thermophoresis (MST) was performed on a Monolith Pico (NanoTemper, Munich, Germany). The Cy5-labeled peptides were diluted into the MST buffer (150 mM NaCl, 50 mM TRIS-HCl, 5 mM CaCl2, and Tween-20) to reach a dilution of 6 nM. ADAMTS4, ADAMTS5, and ADAMTS1 were directly used with the supplied concentration. For ADAMTS4, the starting concentration was 4.96 µM, while for ADAMTS1 it was 4.88 µM and for ADAMTS5 it was 2.46 µM. Since we saw a loss of binding after centrifugation, the use of protein concentrators were inappropriate. 20 µl of the protein solutions were transferred into a PCR tube. 10 µl of this first vial was transferred into a second vial and mixed by pipetting with 10 µl of the MST buffer. […] The capillaries were transferred into the Monolith tray and measured with 10% excitation power on the pico-red excitation on high MST power at 25 °C. […] We detected a ligand-dependent fluorescence change for some of the systems. We checked for ADAMTS4 and the ADAMTS4-specific-Cy5-labeled probe via a saturation test for specifying the ligand-dependent fluorescence change. […] The samples were heated at 95 °C for 5 min and measured in the MST. The fluorescence difference between the concentrations was afterward at the same level. Each measurement was repeated three times independently and the binding constant was calculated by merging all three measurements. […]"}, "[3]": {"target": "T2, ADAMTS4 in the aortic wall of ApoE−/− mice (Mus musculus, UniProt Q8BNJ2)", "T2 construct": "from tissue", "T2 sequence (Q8BNJ2 209-833)": "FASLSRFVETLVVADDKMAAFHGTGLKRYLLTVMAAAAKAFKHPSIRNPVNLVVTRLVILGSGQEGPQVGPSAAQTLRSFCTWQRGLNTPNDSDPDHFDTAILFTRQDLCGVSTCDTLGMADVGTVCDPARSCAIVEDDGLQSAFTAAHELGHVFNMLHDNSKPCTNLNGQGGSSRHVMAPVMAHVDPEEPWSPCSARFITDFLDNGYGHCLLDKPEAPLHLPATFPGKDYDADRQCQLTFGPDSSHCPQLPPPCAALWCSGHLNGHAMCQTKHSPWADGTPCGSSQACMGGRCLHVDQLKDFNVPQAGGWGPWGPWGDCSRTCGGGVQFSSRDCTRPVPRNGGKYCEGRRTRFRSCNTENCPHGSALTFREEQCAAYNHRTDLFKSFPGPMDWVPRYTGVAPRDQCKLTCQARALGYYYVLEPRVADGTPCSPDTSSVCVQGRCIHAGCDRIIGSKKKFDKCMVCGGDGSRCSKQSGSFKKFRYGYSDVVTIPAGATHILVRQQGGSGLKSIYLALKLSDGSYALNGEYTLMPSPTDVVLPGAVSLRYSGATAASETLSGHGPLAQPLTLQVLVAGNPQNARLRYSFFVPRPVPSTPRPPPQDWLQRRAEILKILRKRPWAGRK", "experiment": "In vivo MRI with negative control probe and ADAMTS4-specific probe", "settings": "for CNR post administration, individual animals: d1 = negative control probe, d2 = ADAMTS4-specific probe, 0.13 mmol/kg", "protocol": "In vivo MR imaging was performed in 6 ApoE^−/− mice (n = 6): three mice (n = 3) received AngII through the osmotic minipumps, three mice (n = 3) received saline, serving as the control group. MR imaging was performed 4 weeks after minipump implantation. On day 1, a native MR scan was followed by the intravenous injection of the negative control peptide (0.13 mmol/kg) and a subsequent MR scan. 24 h later, mice were imaged prior to and following the intravenous administration of the ADAMTS4-specific probe (0.13 mmol/kg).\nAnalysis of resulting MR images was performed using OsiriX (version 7.1, OsiriX Foundation, Bernex, Switzerland). All morphometric measurements were conducted on high-resolution MRI images. In order to assess the signal intensities, regions of interest (ROIs) were measured as areas of signal enhancement, which were co-localized with areas of aneurysmal-aortic tissue. For these areas, the CNR was calculated using the following formula: CNR = (Combined vessel-wall and aneurysmal-aortic-tissue-signal − blood-signal)/standard-deviation-signal (noise). The signal of noise was defined as the standard deviation in pixel intensity from an ROI placed in the background air anterior to the aorta."}, "[4]": {"target": "ADAMTS4-specific peptide with the glycine exchanged for alanine (alanine scan peptide), Cy5-labeled", "experiment": "MST; Monolith Pico; read-out is the ligand-dependent fluorescence change, not the thermophoresis; Cy5-labeled peptide constant (6 nM solution), protein in a 16-step 1:1 dilution series; 150 mM NaCl, 50 mM TRIS-HCl, 5 mM CaCl2, Tween-20; 25 °C"}, "[5]": {"target": "ADAMTS4-specific probe, Cy5-labeled (cyclic peptide Cys*-Ser-Arg-Arg-Gly-Cys*-Ser with peptide linker)", "experiment": "MST; Monolith Pico; read-out is the ligand-dependent fluorescence change, not the thermophoresis; Cy5-labeled peptide constant (6 nM solution), protein in a 16-step 1:1 dilution series; 150 mM NaCl, 50 mM TRIS-HCl, 5 mM CaCl2, Tween-20; 25 °C"}},
  "note": "Values joined by “and” are separate entries in the source; they are usually repeats but may differ in a detail not shown here. Equal values may be shown once. “Also recorded” adds a separate entry of the source. Where a SMILES comes first, the peptide text is derived from it. Bridges are numbered along the chain shown (N, C = ends). The star is where a group is joined. Cy5(nonsulfonated) = CN1C(=CC=CC=CC2=[N+](CCCCCC(=O)*)c3ccccc3C2(C)C)C(C)(C)c2ccccc21",
  "data": [
    {"molecule": "C[C@@H]1NC(=O)[C@H](CCCNC(=N)N)NC(=O)[C@H](CCCNC(=N)N)NC(=O)[C@H](CO)NC(=O)[C@@H](N)CSSC[C@@H](C(=O)N[C@@H](CO)C(=O)NCC(=O)NCC(=O)N[C@@H](CO)C(=O)NCC(=O)NCC(=O)N[C@@H](CCCCNC(=O)CCCCCN2C(=CC=CC=CC3=[N+](C)c4ccccc4C3(C)C)C(C)(C)c3ccccc32)C(=O)NCC(N)=O)NC1=O", "note": "[ADAMTS4-specific probe-Gly] (H-CSRRACSGGSGGK(Cy5(nonsulfonated))G-NH2; disulfide 1-6; N-terminus and C-terminus assumed)", "values": [
      {"measurement": "binding to ADAMTS4 (ligand-dependent fluorescence change), in words", "setting": "ADAMTS4 [1]", "value": "decrease the binding; also recorded: a ligand dependent fluorescence change occurs"},
      {"measurement": "decrease in the binding affinity versus the parent peptide", "setting": "ADAMTS4 [1]; alanine scan", "value": "around ten times"}
    ]},
    {"molecule": "Cys*-Phe-His-Pro-Tyr-Cys*-Ser (disulfide) [negative control peptide]", "values": [
      {"measurement": "binding to ADAMTS4 (ligand-dependent fluorescence change), in words", "setting": "ADAMTS4 [1]", "value": "could not find binding; also recorded: no fluorescence change was detectable; also recorded: did not show any binding"},
      {"measurement": "binding in the MST trace", "setting": "ADAMTS4 [2]", "value": "no binding occurs"}
    ]},
    {"molecule": "Cys*-Phe-His-Pro-Tyr-Cys*-linker (DOTA-Gd) (disulfide) [negative control probe, Cys*-Phe-His-Pro-Tyr-Cys*-linker (DOTA-Gd), similar size to the ADAMTS4-specific probe]", "values": [
      {"measurement": "increase in MR signal / CNR in the aortic wall, in words", "setting": "[3]; 0.13 mmol/kg i.v., 4 weeks after minipump implantation, n = 6", "value": "no significant increase; also recorded: significantly lower increase"},
      {"measurement": "CNR post administration, individual animals", "setting": "[3]; AAA (AngII) mice", "value": "7.71 and 5.8 and 6.78"},
      {"measurement": "CNR post administration, individual animals", "setting": "[3]; control (c, saline) mice", "value": "4.54 and 4.4 and 5.52"}
    ]},
    {"molecule": "B1", "values": [
      {"measurement": "Kd", "setting": "[4]", "value": 0.609, "unit": "µM"},
      {"measurement": "Kd", "setting": "[5]", "value": 0.051, "unit": "µM"}
    ]}
  ]
}
